In patent US20250302822A1, “COMPOSITION FOR ENHANCING ANTICANCER EFFECT OF MEK INHIBITOR COMPRISING ARIPIPRAZOLE AS ACTIVE INGREDIENT” (KOREA INSTITUTE OF RADIOLOGICAL & MEDICAL SCIENCES, priority 2022, published 2025):

What was measured:
[1] = test system: NOXA; experiment: NOXA protein expression in COLO 205 cells via Western blot; assay type: cell-based; settings: eight hours after treatment, Western blot (FIG. 1)
Procedure: (§1) To identify an effect of aripiprazole on the expression of NOXA and PUMA proteins in cancer cells, COLO 205 cells were treated with aripiprazole. Eight hours later, proteins were extracted from cells after washing with PBS, and a level of NOXA and PUMA expression was checked via Western blot.

[2] = test system: PUMA; experiment: PUMA protein expression in COLO 205 cells via Western blot; assay type: cell-based; settings: eight hours after treatment, Western blot (FIG. 1)
Procedure: as §1

For `O=C1CCc2ccc(OCCCCN3CCN(c4cccc(Cl)c4Cl)CC3)cc2N1` [aripiprazole], the “expression of NOXA protein” value [1] was “increased” and the “expression of PUMA protein” value [2] was “increased”.
